Structures can show the parent of a compound that is named as a salt.

For `N[C@@H](CSSC[C@H](N)C(=O)N1CCn2nc(-c3ccccc3)cc2[C@@H]1CC1CCCCC1)C(=O)N1CCn2nc(-c3ccccc3)cc2[C@@H]1CC1CCCCC1` (as salt: hydrochloride) [Example 24, (2R)-3-({(2R)-2-amino-3-[(4S)-4-(cyclohexylmethyl)-2-phenyl-6,7-dihydropyrazolo[1,5-a]pyrazin-5(4H)-yl]-3-oxopropyl}dithio)-1-[(4S)-4-(cyclohexylmethyl)-2-phenyl-6,7-dihydropyrazolo[1,5-a]pyrazin-5(4H)-yl]-1-oxopropan-2-amine hydrochloride], the melting point (in general, the temperature of the solid-liquid transition) was in the range of 214 to 219 °C.

`N[C@@H](CSSC[C@H](N)C(=O)N1CCn2nc(-c3ccccc3)cc2[C@H]1CC1CCCCC1)C(=O)N1CCn2nc(-c3ccccc3)cc2[C@H]1CC1CCCCC1` (as salt: hydrochloride) [Example 26, (1R)-3-({(2R)-2-amino-3-[(4R)-4-(cyclohexylmethyl)-2-phenyl-6,7-dihydropyrazolo[1,5-a]pyrazin-5(4H)-yl]-3-oxopropyl}dithio)-1-[(4R)-4-(cyclohexylmethyl)-2-phenyl-6,7-dihydropyrazolo[1,5-a]pyrazin-5(4H)-yl]-1-oxopropan-2-amine hydrochloride] registered a melting point of 212 to 217 °C.

Turning to `CC(C)(C)OC(=O)N[C@@H](C[Se][Se]C[C@H](NC(=O)OC(C)(C)C)C(=O)N1CCn2nc(-c3ccccc3)cc2C1CC1CCCCC1)C(=O)N1CCn2nc(-c3ccccc3)cc2C1CC1CCCCC1` (mixture of isomers), the melting point lay within 117 to 120 °C.

On to `N[C@@H](C[Se][Se]C[C@H](N)C(=O)N1CCn2nc(-c3ccccc3)cc2C1CC1CCCCC1)C(=O)N1CCn2nc(-c3ccccc3)cc2C1CC1CCCCC1` (mixture of isomers) (as salt: hydrochloride), for which the melting point was 217 to 220 °C (dec.).

On to `N[C@@H](CSSC[C@H](N)C(=O)N1CCn2nc(-c3ccccc3)cc2C1CC1CCCCC1)C(=O)N1CCn2nc(-c3ccccc3)cc2C1CC1CCCCC1` (mixture of isomers) (as salt: hydrochloride) [Example 12, (2R)-3-({(2R)-2-amino-3-[(4RS)-4-(cyclohexylmethyl)-2-phenyl-6,7-dihydropyrazolo[1,5-a]pyrazin-5(4H)-yl]-3-oxopropyl}dithio)-1-[(4RS)-4-(cyclohexylmethyl)-2-phenyl-6,7-dihydropyrazolo[1,5-a]pyrazin-5(4H)-yl]-1-oxopropan-2-amine hydrochloride], for which the melting point is 218 °C (dec.).

`N[C@@H](CSSC[C@H](N)C(=O)N1CCn2nc(-c3ccccc3)cc2C1CCc1ccccc1)C(=O)N1CCn2nc(-c3ccccc3)cc2C1CCc1ccccc1` (mixture of isomers) (as salt: hydrochloride) [Example 13, (2R)-3-({(2R)-2-amino-3-oxo-3-[(4RS)-2-phenyl-4-(2-phenylethyl)-6,7-dihydropyrazolo[1,5-a]pyrazin-5(4H)-yl]propyl}dithio)-1-oxo-1-[(4RS)-2-phenyl-4-(2-phenylethyl)-6,7-dihydropyrazolo[1,5-a]pyrazin-5(4H)-yl]propan-2-amine hydrochloride]: the melting point was 208 °C (dec.).

For the compound `N[C@@H](CSSC[C@H](N)C(=O)N1CCn2nc(-c3ccncc3)cc2C1CCc1ccccc1)C(=O)N1CCn2nc(-c3ccncc3)cc2C1CCc1ccccc1` (mixture of isomers) (as salt: hydrochloride) [Example 14, (2R)-3-({(2R)-2-amino-3-oxo-3-[(4RS)-4-(2-phenylethyl)-2-pyridin-4-yl-6,7-dihydropyrazolo[1,5-a]pyrazin-5(4H)-yl]propyl}dithio)-1-oxo-1-[(4RS)-4-(2-phenylethyl)-2-pyridin-4-yl-6,7-dihydropyrazolo[1,5-a]pyrazin-5(4H)-yl]propan-2-amine hydrochloride], the melting point is 227 °C (dec.).

For the compound `N[C@@H](CSSC[C@H](N)C(=O)N1CCn2nc(-c3cccnc3)cc2C1CCc1ccccc1)C(=O)N1CCn2nc(-c3cccnc3)cc2C1CCc1ccccc1` (mixture of isomers) (as salt: hydrochloride) [Example 15, (2R)-3-({(2R)-2-amino-3-oxo-3-[(4RS)-4-(2-phenylethyl)-2-pyridin-3-yl-6,7-dihydropyrazolo[1,5-a]pyrazin-5(4H)-yl]propyl}dithio)-1-oxo-1-[(4RS)-4-(2-phenylethyl)-2-pyridin-3-yl-6,7-dihydropyrazolo[1,5-a]pyrazin-5(4H)-yl]propan-2-amine hydrochloride], the melting point was 223 °C (dec.).

Take `N[C@@H](CSSC[C@H](N)C(=O)N1CCn2nc(-c3ccc4c(c3)OCO4)cc2C1CCc1ccccc1)C(=O)N1CCn2nc(-c3ccc4c(c3)OCO4)cc2C1CCc1ccccc1` (mixture of isomers) (as salt: hydrochloride) [Example 16, (2R)-3-({(2R)-2-amino-3-[(4RS)-2-(1,3-benzodioxol-5-yl)-4-(2-phenylethyl)-6,7-dihydropyrazolo[1,5-a]pyrazin-5(4H)-yl]-3-oxopropyl}dithio)-1-[(4RS)-2-(1,3-benzodioxol-5-yl)-4-(2-phenylethyl)-6,7-dihydropyrazolo[1,5-a]pyrazin-5(4H)-yl]-1-oxopropan-2-amine hydrochloride]: the melting point was 221 °C (dec.).

For `COc1cc(-c2cc3n(n2)CCN(C(=O)[C@@H](N)CSSC[C@H](N)C(=O)N2CCn4nc(-c5cc(OC)c(OC)c(OC)c5)cc4C2CCc2ccccc2)C3CCc2ccccc2)cc(OC)c1OC` (mixture of isomers) (as salt: hydrochloride) [Example 17, (2R)-3-({(2R)-2-amino-3-oxo-3-[(4RS)-4-(2-phenylethyl)-2-(3,4,5-trimethoxyphenyl)-6,7-dihydropyrazolo[1,5-a]pyrazin-5(4H)-yl]propyl}dithio)-1-oxo-1-[(4RS)-4-(2-phenylethyl)-2-(3,4,5-trimethoxyphenyl)-6,7-dihydropyrazolo[1,5-a]pyrazin-5(4H)-yl]propan-2-amine hydrochloride], the melting point was 211 °C (dec.).

With `N[C@@H](CSSC[C@H](N)C(=O)N1CCn2nc(-c3cccs3)cc2C1CCc1ccccc1)C(=O)N1CCn2nc(-c3cccs3)cc2C1CCc1ccccc1` (mixture of isomers) (as salt: hydrochloride) [Example 18, (2R)-3-({(2R)-2-amino-3-oxo-3-[(4RS)-4-(2-phenylethyl)-2-(2-thienyl)-6,7-dihydropyrazolo[1,5-a]pyrazin-5(4H)-yl]propyl}dithio)-1-oxo-1-[(4RS)-4-(2-phenylethyl)-2-(2-thienyl)-6,7-dihydropyrazolo[1,5-a]pyrazin-5(4H)-yl]propan-2-amine hydrochloride], the melting point was 218 °C (dec.).

For `N[C@@H](CSSC[C@H](N)C(=O)N1CCn2nc(-c3ccco3)cc2C1CCc1ccccc1)C(=O)N1CCn2nc(-c3ccco3)cc2C1CCc1ccccc1` (mixture of isomers) (as salt: hydrochloride) [Example 19, (2R)-3-({(2R)-2-amino-3-[(4RS)-2-(2-furyl)-4-(2-phenylethyl)-6,7-dihydropyrazolo[1,5-a]pyrazin-5(4H)-yl]-3-oxopropyl}dithio)-1-[(4RS)-2-(2-furyl)-4-(2-phenylethyl)-6,7-dihydropyrazolo[1,5-a]pyrazin-5(4H)-yl]-1-oxopropan-2-amine hydrochloride], the melting point is 207 °C (dec.).

Turning to `CCCCCC1c2cc(-c3ccccc3)nn2CCN1C(=O)[C@@H](N)CSSC[C@H](N)C(=O)N1CCn2nc(-c3ccccc3)cc2C1CCCCC` (mixture of isomers) (as salt: hydrochloride) [Example 20, (2R)-3-({(2R)-2-amino-3-oxo-3-[(4RS)-4-pentyl-2-phenyl-6,7-dihydropyrazolo[1,5-a]pyrazin-5(4H)-yl]propyl}dithio)-1-oxo-1-[(4RS)-4-pentyl-2-phenyl-6,7-dihydropyrazolo[1,5-a]pyrazin-5(4H)-yl]propan-2-amine hydrochloride], the melting point was 199 to 204 °C (dec.).

Turning to `CCCCC1c2cc(-c3ccccc3)nn2CCN1C(=O)[C@@H](N)CSSC[C@H](N)C(=O)N1CCn2nc(-c3ccccc3)cc2C1CCCC` (mixture of isomers) (as salt: hydrochloride) [Example 21, (2R)-3-({(2R)-2-amino-3-[(4RS)-4-butyl-2-phenyl-6,7-dihydropyrazolo[1,5-a]pyrazin-5(4H)-yl]-3-oxopropyl}dithio)-1-[(4RS)-4-butyl-2-phenyl-6,7-dihydropyrazolo[1,5-a]pyrazin-5(4H)-yl]-1-oxopropan-2-amine hydrochloride], the melting point was 210 to 215 °C (dec.).

Consider `N[C@@H](CSSC[C@H](N)C(=O)N1CCn2nc(-c3ccc(Cl)cc3Cl)cc2C1CCc1ccccc1)C(=O)N1CCn2nc(-c3ccc(Cl)cc3Cl)cc2C1CCc1ccccc1` (mixture of isomers) (as salt: hydrochloride) [Example 22, (2R)-3-({(2R)-2-amino-3-[(4RS)-2-(2,4-dichlorophenyl)-4-(2-phenylethyl)-6,7-dihydropyrazolo[1,5-a]pyrazin-5(4H)-yl]-3-oxopropyl}dithio)-1-[(4RS)-2-(2,4-dichlorophenyl)-4-(2-phenylethyl)-6,7-dihydropyrazolo[1,5-a]pyrazin-5(4H)-yl]-1-oxopropan-2-amine hydrochloride], for which the melting point was in the range of 198 to 202 °C.

For `N[C@@H](CSSC[C@H](N)C(=O)N1CCCn2nc(-c3ccccc3)cc2C1CC1CCCCC1)C(=O)N1CCCn2nc(-c3ccccc3)cc2C1CC1CCCCC1` (mixture of isomers) (as salt: hydrochloride) [Example 28, {(1R)-1-[({(2R)-2-amino-3-[(4RS)-4-(cyclohexylmethyl)-2-phenyl-7,8-dihydro-4H-pyrazolo[1,5-a][1,4]diazepin-5(6H)-yl]-3-oxopropyl}dithio)methyl]-2-[(4RS)-4-(cyclohexylmethyl)-2-phenyl-7,8-dihydro-4H-pyrazolo[1,5-a][1,4]diazepin-5(6H)-yl]-2-oxoethyl}amine hydrochloride], the melting point was 198 to 208 °C.

Regarding `N[C@@H](CSSC[C@H](N)C(=O)N1CCn2nc(-c3ccccn3)cc2C1CCc1ccccc1)C(=O)N1CCn2nc(-c3ccccn3)cc2C1CCc1ccccc1` (mixture of isomers) (as salt: hydrochloride) [Example 32, (2R)-3-({(2R)-2-amino-3-oxo-3-[(4RS)-4-(2-phenylethyl)-2-pyridin-2-yl-6,7-dihydropyrazolo[1,5-a]pyrazin-5(4H)-yl]propyl}dithio)-1-oxo-1-[(4RS)-4-(2-phenylethyl)-2-pyridin-2-yl-6,7-dihydropyrazolo[1,5-a]pyrazin-5(4H)-yl]propan-2-amine hydrochloride], the melting point was 232 to 234 °C (dec.).
